Laboratory results from ChEMBL document CHEMBL2434911, “Flavone-based analogues inspired by the natural product simocyclinone D8 as DNA gyrase inhibitors” (Bioorg Med Chem Lett, 2013).
Active and inactive are the calls of the source. The rule behind the calls is not given here.

Columns and labels:
[1] = target: T1, DNA topoisomerase 2-alpha (Homo sapiens, UniProt P11388); experiment: Inhibition of cleavage activity of human topoisomerase 2 using relaxed pBR322 as substrate at 200 uM after 10 mins by agarose gel electrophoresis analysis relative to control
[2] = species: Bos taurus; experiment: Inhibition of supercoiling activity of calf thymus topoisomerase 1 using […] as substrate after 15 mins by ethidium bromide staining
[3] = tested on: Escherichia coli; experiment: Inhibition of cleavage activity of Escherichia coli DNA gyrase using relaxed pBR322 as substrate at 200 uM after 10 mins by agarose gel electrophoresis analysis relative to control
[4] = Inhibition of supercoiling activity of Escherichia coli DNA gyrase using relaxed pBR322 as substrate after 15 mins by ethidium bromide staining
[5] = target: T1, DNA topoisomerase 2-alpha; experiment: Inhibition of human topoisomerase 2 using […] as substrate after 10 mins by decatenation assay
[6] = tested on: Escherichia coli; experiment: Inhibition of Escherichia coli DNA gyrase interaction to 5'-biotinylated DNA after 4 mins by surface plasmon resonance analysis

T1 sequence (P11388 whole entry): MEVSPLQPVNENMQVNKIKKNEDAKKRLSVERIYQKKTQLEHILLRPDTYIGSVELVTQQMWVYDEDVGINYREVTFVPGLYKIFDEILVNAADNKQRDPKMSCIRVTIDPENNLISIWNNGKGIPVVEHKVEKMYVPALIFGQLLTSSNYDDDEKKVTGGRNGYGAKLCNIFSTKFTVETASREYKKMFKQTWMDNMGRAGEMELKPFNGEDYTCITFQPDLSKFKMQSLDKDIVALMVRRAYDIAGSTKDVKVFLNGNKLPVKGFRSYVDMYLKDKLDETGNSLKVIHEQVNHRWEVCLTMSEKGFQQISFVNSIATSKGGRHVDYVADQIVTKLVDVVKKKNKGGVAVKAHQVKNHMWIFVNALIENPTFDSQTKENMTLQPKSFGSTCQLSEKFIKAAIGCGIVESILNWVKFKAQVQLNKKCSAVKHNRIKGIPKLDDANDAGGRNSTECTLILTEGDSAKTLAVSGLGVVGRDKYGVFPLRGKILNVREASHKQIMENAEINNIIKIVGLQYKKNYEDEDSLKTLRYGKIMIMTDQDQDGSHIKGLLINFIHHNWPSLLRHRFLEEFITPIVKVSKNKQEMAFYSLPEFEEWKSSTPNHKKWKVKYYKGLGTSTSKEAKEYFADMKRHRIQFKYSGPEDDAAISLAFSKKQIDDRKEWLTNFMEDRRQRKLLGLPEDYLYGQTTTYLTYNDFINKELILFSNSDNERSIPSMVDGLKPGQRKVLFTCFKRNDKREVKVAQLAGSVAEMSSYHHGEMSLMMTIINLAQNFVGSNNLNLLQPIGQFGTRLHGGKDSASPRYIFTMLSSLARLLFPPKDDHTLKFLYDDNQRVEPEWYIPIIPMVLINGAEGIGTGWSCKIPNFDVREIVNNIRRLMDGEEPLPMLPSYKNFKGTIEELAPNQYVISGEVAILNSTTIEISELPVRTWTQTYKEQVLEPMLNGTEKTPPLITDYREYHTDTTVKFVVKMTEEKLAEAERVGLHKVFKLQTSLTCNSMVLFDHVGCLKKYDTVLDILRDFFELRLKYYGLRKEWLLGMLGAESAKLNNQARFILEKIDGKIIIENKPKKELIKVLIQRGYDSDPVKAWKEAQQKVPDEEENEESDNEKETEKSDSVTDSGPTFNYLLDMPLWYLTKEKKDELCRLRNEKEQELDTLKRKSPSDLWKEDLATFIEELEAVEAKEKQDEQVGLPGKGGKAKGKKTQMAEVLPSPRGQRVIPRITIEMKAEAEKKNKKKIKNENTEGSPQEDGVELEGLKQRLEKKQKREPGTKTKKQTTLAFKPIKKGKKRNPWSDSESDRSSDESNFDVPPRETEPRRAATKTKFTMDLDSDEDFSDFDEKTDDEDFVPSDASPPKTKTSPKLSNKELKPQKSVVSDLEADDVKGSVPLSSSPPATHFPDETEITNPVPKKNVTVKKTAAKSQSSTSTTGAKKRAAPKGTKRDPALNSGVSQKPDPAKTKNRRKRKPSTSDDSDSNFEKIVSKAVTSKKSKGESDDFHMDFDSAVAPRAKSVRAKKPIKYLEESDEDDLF

Row | SMILES | fold change (FC) [1] | inhibition [2] | fold change (FC) [3] | IC50 [4] [µM] | IC50 [5] [µM] | inhibition [6]
1 | O=C(O)Cc1ccc(NC(=O)CNC(=O)CCCCCC(=O)Oc2c(-c3ccc(O)c(O)c3)oc3cc(O)cc(O)c3c2=O)cc1 | < 1 | inactive | 1.8 | > 200 | > 200 | 
2 | COC(=O)/C=C/C=C/C=C/C=C/C(=O)Nc1c(O)c2ccc(O)c(Cl)c2oc1=O |  |  |  | 50 |  | 
3 | O=c1c(O)c(-c2ccc(O)c(O)c2)oc2cc(O)cc(O)c12 |  | Active |  |  |  | 
4 | COC(=O)CCCCCCCCC(=O)Oc1c(-c2ccc(O)c(O)c2)oc2cc(O)cc(O)c2c1=O | < 1 | inactive | < 1 | > 200 | > 200 | 
5 | O=C(CCCCCC(=O)Oc1c(-c2ccc(O)c(O)c2)oc2cc(O)cc(O)c2c1=O)NCC(=O)Nc1ccccc1 | 2.7 | Active | 7.8 | 48.6 | 149 | inactive
6 | O=C(CCCCCC(=O)Oc1c(-c2ccc(O)c(O)c2)oc2cc(O)cc(O)c2c1=O)NCC(=O)Nc1ccc(O)cc1 | 2.4 | Active | 5 | 84.7 | > 200 | inactive
7 | O=C(CCCCCC(=O)Oc1c(-c2ccc(O)c(O)c2)oc2cc(O)cc(O)c2c1=O)NCC(=O)Nc1ccc(O)c(CO)c1 | < 1 | inactive | 1.9 | > 200 | 78.9 | 
8 | O=C(CCCCCC(=O)Oc1c(-c2ccc(O)c(O)c2)oc2cc(O)cc(O)c2c1=O)NCC(=O)Nc1ccc(CO)cc1 | 2.1 | inactive | 3 | > 200 | > 200 | 
9 | CC(=O)O[C@@H]1[C@@H](C)O[C@@H](c2ccc3c(c2O)[C@@H](O)[C@]24O[C@@]2(C3=O)[C@@]2(O)C(=O)C=C(C)C[C@@]2(O)C[C@@H]4O)C[C@H]1OC(=O)/C=C/C=C/C=C/C=C/C(=O)Nc1c(O)c2ccc(O)c(Cl)c2oc1=O [SIMOCYCLINONE D8] |  |  | < 1 | 0.41 |  | 
